Assay results reported in PMC8268740, “Evaluation of Firefly and Renilla Luciferase Inhibition in Reporter-Gene Assays: A Case of Isoflavonoids” (International Journal of Molecular Sciences, 2021).
Where “and” joins values, the source holds several entries; their conditions need not be identical. Equal values may be shown once. Entries after “also recorded” stand apart in the source; their conditions may differ. Read-outs that look alike come from different tables or passages of the source.

Experiments:
[1] = molecular target: T1, firefly luciferase (FLuc) (Photinus pyralis, UniProt P08659); test: Cell-lysate (AR-EcoScreen) in vitro firefly luciferase inhibition assay; type: biochemical; details: for IC50 / FLuc inhibition (result in words): AR-EcoScreen cell lysate; for inhibition at 1 µM / inhibition at 10 µM / inhibition at 100 µM: read-out: inhibition of FLuc; for FLuc inhibition (result in words): screened at 1, 10, 100 µM
T1 construct: host or cells: AR-EcoScreen (Chinese hamster ovary derived), lysate after dihydrotestosterone induction
Procedure: (§1) Preparation of cell lysates for use in the luciferase inhibition assays was through seeding of 4–7 ×10^6 cells into a 150 cm^2 growth flask (an equivalent surface density to that indicated in OECD TG 458 [10]) for 24 h at 37 °C under 5% CO2. Upon incubation, dihydrotestosterone (Sigma-Aldrich, St. Louis, MO, USA) diluted in DMSO was added at 10 nM final concentration. This was followed by another 24-h incubation, removal of medium, and addition of 9.4 mL reporter lysis buffer (Promega, Madison, WI, USA). The growth flask was then stored at −80 °C until use.
The cell lysate was thawed at room temperature. Stock solutions of the isoflavonoids and positive controls were dissolved in DMSO and 10-fold serially diluted in the cell lysate to the final concentration with 1% DMSO. Twenty microliters of each isoflavonoid in the cell lysate were transferred to 96-well plates in triplicate and incubated for 30 min at room temperature. Then, 30 µL Luciferase Assay Reagent II (contained in the Dual-Luciferase Reporter Assay System; Promega, Madison, WI, USA) was added to each well, and the FLuc luminescence was measured using a microplate reader (Synergy 4 hybrid; BioTek, Winooski, VT, USA). The addition of 30 µL of Stop & Glo Reagent (contained in the Dual-Luciferase Reporter Assay System) followed, and the RLuc luminescence was recorded using the microplate reader (Synergy 4 hybrid; BioTek, Winooski, VT, USA).
The data from the in vitro luciferase inhibition assays in the AR-EcoScreen cell lysate were processed by first subtracting the background value (i.e., reporter lysis buffer alone) and then normalization to the vehicle control (1% DMSO), and are expressed as means ± standard deviation of three independent repeats carried out as technical triplicates. […] Statistical significance as compared to the vehicle control, considered: *, p ≤ 0.05; **, p ≤ 0.01; and ****, p ≤ 0.0001, using one-way ANOVA, followed by post-hoc Dunnett’s tests.

RLuc = details: read-out: IC50 RLuc inhibition; in the presence of 10 µM coelenterazine; cited from earlier work
[2] = molecular target: T2, Renilla luciferase (RLuc) (Renilla reniformis, UniProt P27652); test: Cell-lysate (AR-EcoScreen) in vitro Renilla luciferase inhibition assay; type: biochemical
T2 construct: host or cells: AR-EcoScreen (Chinese hamster ovary derived), lysate
T2 sequence (P27652 1-311): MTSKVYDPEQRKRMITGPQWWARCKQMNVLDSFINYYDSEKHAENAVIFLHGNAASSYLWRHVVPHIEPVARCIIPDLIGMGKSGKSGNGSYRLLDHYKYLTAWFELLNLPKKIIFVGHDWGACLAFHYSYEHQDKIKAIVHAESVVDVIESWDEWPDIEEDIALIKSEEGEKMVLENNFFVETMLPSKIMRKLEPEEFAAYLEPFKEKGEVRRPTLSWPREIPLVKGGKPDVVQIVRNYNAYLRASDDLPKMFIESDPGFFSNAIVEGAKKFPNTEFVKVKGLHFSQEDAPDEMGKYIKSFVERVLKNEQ
Procedure: as §1
The cell lysate was thawed at room temperature. Stock solutions of the isoflavonoids and positive controls were dissolved in DMSO and 10-fold serially diluted in the cell lysate to the final concentration with 1% DMSO. […] Then, 30 µL Luciferase Assay Reagent II (contained in the Dual-Luciferase Reporter Assay System; Promega, Madison, WI, USA) was added to each well, and the FLuc luminescence was measured using a microplate reader (Synergy 4 hybrid; BioTek, Winooski, VT, USA). The addition of 30 µL of Stop & Glo Reagent (contained in the Dual-Luciferase Reporter Assay System) followed, and the RLuc luminescence was recorded using the microplate reader (Synergy 4 hybrid; BioTek, Winooski, VT, USA). […]

isolated FLuc = details: cited from earlier work
[3] = read-out: IC50 firefly luciferase inhibition
[4] = IC50 firefly luciferase inhibition

T1 sequence (P08659 whole entry): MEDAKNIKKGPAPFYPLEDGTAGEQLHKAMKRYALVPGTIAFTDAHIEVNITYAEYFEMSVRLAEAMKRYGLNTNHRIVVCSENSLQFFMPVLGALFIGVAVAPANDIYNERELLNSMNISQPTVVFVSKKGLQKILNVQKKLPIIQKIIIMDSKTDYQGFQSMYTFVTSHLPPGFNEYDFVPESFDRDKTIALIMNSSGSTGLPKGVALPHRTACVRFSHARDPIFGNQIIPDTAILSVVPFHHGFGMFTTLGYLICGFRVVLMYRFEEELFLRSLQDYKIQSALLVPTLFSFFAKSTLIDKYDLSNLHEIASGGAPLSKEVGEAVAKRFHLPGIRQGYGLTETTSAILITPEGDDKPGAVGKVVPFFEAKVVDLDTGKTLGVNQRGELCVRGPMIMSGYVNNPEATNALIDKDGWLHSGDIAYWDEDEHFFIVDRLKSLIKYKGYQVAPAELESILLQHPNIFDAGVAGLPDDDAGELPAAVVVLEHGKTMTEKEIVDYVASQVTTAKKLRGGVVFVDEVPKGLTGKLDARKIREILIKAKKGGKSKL

COc1ccc(-c2coc3cc(O)cc(O)c3c2=O)cc1 [Biochanin A, biochanin A]
IC50 [1, 3]: 0.636 µM and 0.64 µM
inhibition at 1 µM [1]: 62.4%

COc1ccc(-c2coc3cc(O)ccc3c2=O)cc1O [Calycosin]
IC50 [1, 4]: 4.96 µM
inhibition at 10 µM [1]: 66.2%

O=c1c(-c2ccc(O)cc2)coc2cc(O)ccc12 [Daidzein]
IC50 [1, 4]: 51.4 µM
inhibition at 100 µM [1]: 60.9%

O=c1c(-c2ccc(O)cc2)coc2cc(O[C@@H]3O[C@H](CO)[C@@H](O)[C@H](O)[C@H]3O)ccc12 [Daidzin, daidzin]
FLuc inhibition (result in words) [1]: inactive; also recorded: did not show inhibition of FLuc at all

COc1ccc(-c2coc3cc(O)ccc3c2=O)cc1 [Formononetin, formononetin]
IC50 [1, 3]: 3.88 µM
inhibition at 1 µM [1]: 32.4%

O=c1c(-c2ccc(O)cc2)coc2cc(O)cc(O)c12 [Genistein, genistein]
IC50 [1, 4]: 36.9 µM
inhibition at 100 µM [1]: 71.2%

O=c1c(-c2ccc(O)cc2)coc2cc(O[C@@H]3O[C@H](CO)[C@@H](O)[C@H](O)[C@H]3O)cc(O)c12 [Genistin, genistin]
FLuc inhibition (result in words) [1]: inactive
FLuc inhibition (result in words) ([1]; listed as genistin): did not show inhibition of FLuc at all

COc1cc2c(=O)c(-c3ccc(O)cc3)coc2cc1O [Glycitein]
IC50 [1, 4]: 26.4 µM
inhibition at 10 µM [1]: 30.1%

COc1cc2c(=O)c(-c3ccc(O)cc3)coc2cc1O[C@@H]1O[C@H](CO)[C@@H](O)[C@H](O)[C@H]1O [Glycitin, glycitin]
FLuc inhibition (result in words) [1]: inactive; also recorded: did not show inhibition of FLuc at all

O=S(=O)(NCCNC/C=C/c1ccc(Br)cc1)c1cccc2cnccc12 [H-89]
IC50 (RLuc): 10 µM
IC50 [2]: 338 µM

COc1cc(O)c2c(=O)c(-c3ccc(O)cc3)coc2c1 [Prunetin, prunetin]
IC50 [1, 4]: 16.3 µM
inhibition at 10 µM [1]: 40.7%

Oc1ccc(/C=C/c2cc(O)cc(O)c2)cc1 [Resveratrol, resveratrol]
IC50 (isolated FLuc): 2000 nM

Oc1ccc([C@H]2COc3cc(O)ccc3C2)cc1 [S-Equol, S-equol]
FLuc inhibition (result in words) [1]: inactive; also recorded: did not show inhibition of FLuc at all
